Here are results for one molecule from ChEMBL document CHEMBL4602676, “Discovery and Development of 3-(6-Chloropyridine-3-yloxymethyl)-2-azabicyclo[3.1.0]hexane Hydrochloride (SUVN-911): A Novel, Potent, Selective, and Orally Active Neuronal Nicotinic Acetylcholine α4β2 Receptor Antagonist for the Treatment of Depression” (J Med Chem, 2020).

As usually defined, the Cmax is the maximum level reached in the sampled fluid or tissue. What is called AUC is concentration integrated over time. Broadly, the IC50 is the concentration at which inhibition is half-maximal. For orientation: fraction unbound means free concentration divided by total concentration. What is called AUC(0-t) is exposure summed from dosing to a finite time, without extrapolation to infinity.

A short description of data set [1]: Metabolic stability in human liver microsomes assessed as compound metabolism incubated for 30 mins in presence of NADPH by LC-MS/MS analysis. The data set is classed as ADME, Microsome. The settings on record: read-out: Drug metabolism. On the technique in general: Microsomes from liver hold many membrane-bound enzymes, among them those of drug oxidation.
A short description of data set [2]: Metabolic stability in rat liver microsomes assessed as compound metabolism incubated for 30 mins in presence of NADPH by LC-MS/MS analysis. The data set is classed as ADME, Microsome. The settings on record: read-out: Drug metabolism.
Data set [3] is described as follows: Cmax in Wistar rat at 10 ml/kg, po or 2 ml/kg, iv measured upto 24 hrs by LC-MS/MS analysis. It counts as ADME, organism-based. The settings on record: in vivo.
A short description of data set [4]: AUC in Wistar rat at 10 ml/kg, po or 2 ml/kg, iv measured upto 24 hrs by LC-MS/MS analysis. The data set is classed as ADME, organism-based. The settings on record: in vivo.
Data set [5] can be described thus: Toxicity in telemetered Beagle dog assessed as change in body weight up to 25 mg/kg, po. The data set is classed as organism-based, Canis lupus familiaris. The settings on record: in vivo.
Data set [6] deals with Voltage-gated inwardly rectifying potassium channel KCNH2 (Homo sapiens, UniProt Q12809). Kind of data set: Inhibition of recombinant human ERG expressed in HEK293 at -80 mV holding potential by whole-cell patch clamp method. It counts as cell-based. (In general: Patch clamp records ionic current or voltage across a cell membrane.)
The target of data set [7] is Cytochrome P450 2D6 (Homo sapiens, UniProt P10635). The data set can be described thus: Inhibition of CYP2D6 in human liver microsomes using dextromethorphan as substrate incubated for 12 min in presence of NADPH by LC-MS/MS analysis. The data set is classed as ADME.
Data set [8] concerns Rattus norvegicus. The data set can be described thus: Antidepressant activity in Wistar rat assessed as reduction in immobility at 10 mg/kg, po administrated for 3 days and measured for 5 mins by forced swim test relative to control. The data set is classed as functional. More on the design: scale not given: the % may be the effect or the level left.
A short description of data set [9]: Terminal half life in Beagle dog at 1 mg/kg, iv by LC-MS/MS analysis. It counts as ADME, organism-based, Canis lupus familiaris. The settings on record: in vivo, read-out: beta t1/2 (converted).
Data set [10] in a line: Protein binding in human plasma assessed as unbound fraction at […] incubated for 6 hrs by LC-MS/MS analysis. The data set is classed as ADME, cell-free.
Data set [11] in a line: AUC (0 to t) in Beagle dog at 3 mg/kg, po by LC-MS/MS analysis. The data set is classed as ADME, organism-based, Canis lupus familiaris. The settings on record: in vivo.
Data set [12] concerns Caco-2. Kind of data set: Ratio of apparent permeability across basolateral to apical over apical to basolateral side in human Caco2 cells. It counts as ADME, cell-based. (Caco-2 monolayers are a common model of the intestinal barrier.)
A short description of data set [13]: Protein binding in rat plasma assessed as unbound fraction at […] incubated for 6 hrs by LC-MS/MS analysis. It counts as ADME, cell-free.
Data set [14] can be described thus: Toxicity in telemetered Beagle dog assessed as change in body temperature up to 25 mg/kg, po. The settings on record: in vivo. It counts as organism-based, Canis lupus familiaris.
Data set [15] has as its system Lymphocyte. The data set can be described thus: Genotoxicity in human peripheral lymphocytes assessed as non clastogenic by chromosomal aberration assay. The data set is classed as toxicity, cell-based.
Data set [16] concerns the target T1, Cytochrome P450 2B6 (Homo sapiens, UniProt P20813).
T1 sequence (P20813 whole entry): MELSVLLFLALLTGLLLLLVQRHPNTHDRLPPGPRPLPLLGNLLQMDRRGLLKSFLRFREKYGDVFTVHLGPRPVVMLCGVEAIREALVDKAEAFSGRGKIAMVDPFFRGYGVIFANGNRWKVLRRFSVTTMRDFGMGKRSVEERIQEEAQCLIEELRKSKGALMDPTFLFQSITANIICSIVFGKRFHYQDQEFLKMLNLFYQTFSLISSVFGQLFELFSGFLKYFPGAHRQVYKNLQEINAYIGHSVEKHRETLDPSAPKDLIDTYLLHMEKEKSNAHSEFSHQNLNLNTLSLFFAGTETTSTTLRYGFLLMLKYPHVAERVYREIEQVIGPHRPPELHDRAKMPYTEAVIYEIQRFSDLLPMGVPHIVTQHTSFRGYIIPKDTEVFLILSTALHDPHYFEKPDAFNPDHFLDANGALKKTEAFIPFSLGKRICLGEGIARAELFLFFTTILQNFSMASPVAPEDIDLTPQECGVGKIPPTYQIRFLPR
Kind of data set: Induction of CYP2B6 (unknown origin). It counts as ADME.

The target of data set [17] is T2, Solute carrier organic anion transporter family member 1B1 (Homo sapiens, UniProt Q9Y6L6).
T2 sequence (Q9Y6L6 whole entry): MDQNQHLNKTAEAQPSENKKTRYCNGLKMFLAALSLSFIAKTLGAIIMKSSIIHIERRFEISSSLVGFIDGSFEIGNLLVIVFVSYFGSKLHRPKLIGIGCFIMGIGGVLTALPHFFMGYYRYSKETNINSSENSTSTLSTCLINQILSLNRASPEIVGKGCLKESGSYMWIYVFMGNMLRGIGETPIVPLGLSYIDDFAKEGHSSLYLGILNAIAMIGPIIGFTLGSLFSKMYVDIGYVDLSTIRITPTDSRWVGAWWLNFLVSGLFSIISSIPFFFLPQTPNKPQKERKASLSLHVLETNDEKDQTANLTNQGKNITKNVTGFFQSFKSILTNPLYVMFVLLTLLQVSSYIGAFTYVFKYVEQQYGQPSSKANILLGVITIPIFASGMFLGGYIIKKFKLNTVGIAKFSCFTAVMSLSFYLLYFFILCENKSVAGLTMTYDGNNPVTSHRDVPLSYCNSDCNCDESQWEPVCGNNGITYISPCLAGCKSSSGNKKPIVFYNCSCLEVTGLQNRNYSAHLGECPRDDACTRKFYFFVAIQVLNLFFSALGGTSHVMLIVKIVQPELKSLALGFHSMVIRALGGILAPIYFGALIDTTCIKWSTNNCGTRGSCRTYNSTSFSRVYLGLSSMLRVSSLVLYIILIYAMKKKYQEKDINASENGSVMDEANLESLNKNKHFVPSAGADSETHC
The data set can be described thus: Inhibition of OATP1B1 (unknown origin).

The target of data set [18] is T3, Solute carrier organic anion transporter family member 1B3 (Homo sapiens, UniProt Q9NPD5).
T3 sequence (Q9NPD5 whole entry): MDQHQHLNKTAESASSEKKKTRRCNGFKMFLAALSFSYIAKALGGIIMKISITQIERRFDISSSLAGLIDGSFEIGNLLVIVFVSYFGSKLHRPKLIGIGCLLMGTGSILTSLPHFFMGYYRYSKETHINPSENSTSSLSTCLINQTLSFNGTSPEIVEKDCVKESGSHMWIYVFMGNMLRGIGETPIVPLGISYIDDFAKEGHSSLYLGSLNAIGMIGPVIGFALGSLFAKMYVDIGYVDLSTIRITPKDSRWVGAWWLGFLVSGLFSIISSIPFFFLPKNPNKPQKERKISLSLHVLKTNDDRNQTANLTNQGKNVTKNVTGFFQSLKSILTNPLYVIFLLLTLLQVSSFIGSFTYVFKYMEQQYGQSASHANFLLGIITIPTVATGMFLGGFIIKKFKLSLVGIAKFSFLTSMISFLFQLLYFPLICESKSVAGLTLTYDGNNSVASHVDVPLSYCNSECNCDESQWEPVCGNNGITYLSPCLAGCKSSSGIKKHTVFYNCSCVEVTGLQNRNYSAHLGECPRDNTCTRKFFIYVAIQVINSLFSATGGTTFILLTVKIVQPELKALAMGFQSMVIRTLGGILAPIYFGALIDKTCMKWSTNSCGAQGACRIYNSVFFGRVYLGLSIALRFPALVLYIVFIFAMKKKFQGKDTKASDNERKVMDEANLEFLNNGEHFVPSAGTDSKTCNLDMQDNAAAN
The data set can be described thus: Inhibition of OATP1B3 (unknown origin).

Data set [19] can be described thus: Genotoxicity in Salmonella typhimurium TA98 in presence of metabolic activation. The settings on record: salmonella enterica subsp. enterica serovar typhimurium. The data set is classed as toxicity.
Data set [20] can be described thus: Genotoxicity in Salmonella typhimurium TA100 in presence of metabolic activation. It counts as toxicity. The settings on record: salmonella enterica subsp. enterica serovar typhimurium.

Where only a bound is given, the exact number is not on record here.

Sequence of Voltage-gated inwardly rectifying potassium channel KCNH2 (Q12809 whole entry): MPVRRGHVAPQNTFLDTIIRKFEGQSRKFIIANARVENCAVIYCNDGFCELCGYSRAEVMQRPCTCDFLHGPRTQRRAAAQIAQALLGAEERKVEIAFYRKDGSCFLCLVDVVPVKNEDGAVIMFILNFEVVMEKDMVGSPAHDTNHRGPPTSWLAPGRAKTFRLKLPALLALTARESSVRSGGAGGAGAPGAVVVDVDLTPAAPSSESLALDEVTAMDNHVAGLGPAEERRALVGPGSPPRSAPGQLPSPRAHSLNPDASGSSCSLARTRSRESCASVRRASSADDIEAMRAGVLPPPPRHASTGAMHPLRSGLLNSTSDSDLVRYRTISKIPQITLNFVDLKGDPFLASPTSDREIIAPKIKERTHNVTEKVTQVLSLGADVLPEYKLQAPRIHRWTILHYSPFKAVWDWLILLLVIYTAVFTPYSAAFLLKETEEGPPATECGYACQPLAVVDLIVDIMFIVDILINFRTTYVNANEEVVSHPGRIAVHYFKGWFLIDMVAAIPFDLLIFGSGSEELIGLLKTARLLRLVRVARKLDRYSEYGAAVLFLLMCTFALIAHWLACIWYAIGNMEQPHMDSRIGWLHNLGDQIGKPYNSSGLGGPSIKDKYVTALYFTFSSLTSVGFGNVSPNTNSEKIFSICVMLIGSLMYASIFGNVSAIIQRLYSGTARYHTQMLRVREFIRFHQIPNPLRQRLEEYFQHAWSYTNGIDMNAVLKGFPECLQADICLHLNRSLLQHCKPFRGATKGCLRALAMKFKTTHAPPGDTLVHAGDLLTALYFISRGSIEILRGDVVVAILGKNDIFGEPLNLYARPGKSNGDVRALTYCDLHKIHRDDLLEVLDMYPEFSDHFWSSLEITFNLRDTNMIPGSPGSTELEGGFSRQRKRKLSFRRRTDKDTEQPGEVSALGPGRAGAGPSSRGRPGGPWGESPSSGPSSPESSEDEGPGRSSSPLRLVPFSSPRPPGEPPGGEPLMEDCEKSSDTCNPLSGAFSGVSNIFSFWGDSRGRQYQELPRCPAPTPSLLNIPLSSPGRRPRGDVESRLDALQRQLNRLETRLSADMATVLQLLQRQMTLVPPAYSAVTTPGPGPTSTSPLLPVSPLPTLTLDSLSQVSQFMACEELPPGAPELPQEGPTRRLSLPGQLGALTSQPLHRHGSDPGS
Sequence of Cytochrome P450 2D6 (P10635 whole entry): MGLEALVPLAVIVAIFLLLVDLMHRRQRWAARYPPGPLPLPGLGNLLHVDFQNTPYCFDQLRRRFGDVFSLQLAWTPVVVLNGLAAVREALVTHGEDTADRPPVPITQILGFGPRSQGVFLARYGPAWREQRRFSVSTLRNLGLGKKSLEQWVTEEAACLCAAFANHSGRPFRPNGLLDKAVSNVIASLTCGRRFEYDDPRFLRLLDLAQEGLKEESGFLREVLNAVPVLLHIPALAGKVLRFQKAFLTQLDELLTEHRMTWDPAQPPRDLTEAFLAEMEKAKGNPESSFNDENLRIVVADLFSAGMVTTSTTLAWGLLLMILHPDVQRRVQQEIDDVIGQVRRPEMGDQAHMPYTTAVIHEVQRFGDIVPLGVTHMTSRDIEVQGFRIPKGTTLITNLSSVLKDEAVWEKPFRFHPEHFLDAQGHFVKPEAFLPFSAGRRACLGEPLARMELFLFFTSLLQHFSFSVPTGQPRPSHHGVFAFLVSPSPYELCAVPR

With `Cl.Clc1ccc(OC[C@@H]2C[C@H]3C[C@H]3N2)cn1`, the figures for the metabolised at 0.5 h in [1] and in [2] were 33.4% and 32.2%, respectively. This molecule also displayed a Cmax in [3] of 1910 ng/mL. Further, the AUC at 24 h in [4] came to 3510 ng·h/mL. Also, the Activity result was “Non-Toxic” in [5]; 66.4% in data set [8]; “Non-Toxic” in [14]; “Non-Toxic” in [15]; “Not Active” in [16]; “Non-Toxic” in data set [19]. Also, the Activity entry in [20] is on record as “Non-Toxic”. Further, the IC50 in data set [6] was over 10 µM; in [7], 38.1 µM. For the same molecule, the half-life in data set [9] is 1.9 h. In addition, the fraction unbound at 6 h was found to be 0.21 in data set [10] and 0.31 in [13]. This molecule had an AUC(0-t) in [11] of 4350 ng·h/mL. Moreover, the Ratio in data set [12] is 0.7. The “inhibition (INH)” value in [17] and in data set [18] was “Not Active” each time.
